Experiment [1] concerns AMPA-induced currents in rat mPFC. The experiment can be described thus: AMPA-induced currents in rat mPFC slices, whole-cell patch clamp. Format: cell-based. Here is the method: Combined administration of the antipsychotic, olanzapine, and the SSRI, fluoxetine, similarly induces rapid antidepressant activity in humans and animals (Tohen et al., 2010); likewise, combined application of olanzapine and fluoxetine is required to induce AMPA receptor currents in vitro.
In contrast, the antipsychotic drug olanzapine, is found to enhance AMPA-induced currents only in the presence of the SSRI fluoxetine. 3 nM olanzapine alone results in about 100% of the AMPA-induced current of the control, while 100 nM fluoxetine results in about 90% of the AMPA-induced current of the control. However, the combination of 3 nM olanzapine and 100 nM fluoxetine is found to synergistically result in almost 150% of the AMPA-induced current of control. When SCH 23390 (1 μM) is combined with the olanzapine and fluoxetine, however, the AMPA-induced current returns to approximately 100% of the control level.
In general terms: Patch clamp records ionic current or voltage across a cell membrane.

For experiment [2], the system named is mTORC1 signaling pathway. The experiment is described as follows: Phosphorylation of mTOR pathway proteins in rat PFC. Format: in vivo. The conditions noted are these: for mTOR phosphorylation (Serine 2448) / increase in phosphorylation of AKT at thr308 / p70s6K phosphorylation (Threonine 389): rat PFC, 30 mg/kg ketamine or 3 mg/kg Formula A i.p.; for increase in phosphorylation of AKT at thr308: both 1 hour and 24 hours post-administration; for p70s6K phosphorylation (Threonine 389): over 24 hours.

For experiment [3] the following is noted: 40-minute infusion, total dose 0.5 mg/kg; after 24 hours; cited from earlier work.
The test system of experiment [4] is 5-HT2 receptor. The experiment can be described thus: DOI-induced head twitch model in mice. Format: in vivo. The conditions noted are these: compound orally 0.5 hr before DOI.
In experiment [5] the test system is NMDA-induced currents in rat mPFC. The experiment is described as follows: NMDA-induced currents in rat mPFC slices, whole-cell patch clamp. Type of experiment: cell-based.
Experiment [6] is described as follows: Clinical studies in patients with acute exacerbated schizophrenia. Format: in vivo, human. The conditions noted are these: 60 mg P.O. once daily up to 28 days. An excerpt:
Social avoidance can be a critical and debilitating symptom in patients suffering from anxiety disorders, especially social anxiety disorder, as well as in patients suffering from traumatic anxiety disorders. Social avoidance is often one of the key determinants of whether a person with a severe anxiety disorder is capable of maintaining familial relationships or employment relationships. […] Negative symptoms of schizophrenia can be divided into two categories: emotional experience (e.g., emotional withdrawal, passive social withdrawal, active social avoidance) and emotional expression (e.g., blunted effect, poor rapport, lack of spontaneity, and motor retardation). […] These are the symptoms that are most highly correlated with interpersonal functioning.

Experiment [7] addresses Mu opiate receptor (Homo sapiens (Human), UniProt P35372). The experiment is described as follows: biochemical.

The structures appear in SMILES notation.

With `Cc1cc2c(s1)Nc1ccccc1N=C2N1CCN(C)CC1` [olanzapine], in experiment [1] (3 nM olanzapine alone), the “AMPA-induced current of the control” value is given as “about 100%”.

Take `CNC1(c2ccccc2Cl)CCCCC1=O` (stereo not shown) [ketamine]: in experiment [2], the “mTOR phosphorylation (Serine 2448)” value is “Neither ketamine nor the Compound of Formula A results in a change”, the “increase in phosphorylation of AKT at thr308” value is about 50% and the “p70s6K phosphorylation (Threonine 389)” value was “transiently increase”. In addition, in experiment [3], the “ratings on the Hamilton Depression Rating Scale (HDRS) compared to placebo” value is on record as “significantly improved ratings”.

On to `O=C1CN2c3c(cccc3[C@@H]3CN(CCCOc4ccc(F)cc4)CC[C@@H]32)N1` [Example 1, (6bR,10aS)-8-(3-(4-fluorophenoxy)propyl)-6b,7,8,9,10,10a-hexahydro-1H-pyrido[3′,4′:4,5]pyrrolo[1,2,3-de]quinoxalin-2(3H)-one], for which, in experiment [4], the “EC50 for reducing DOI-induced head twitches” value was 0.44 mg/kg, p.o.

Broadly, the Ki is a dissociation constant, usually derived from enzyme kinetics or from competition with a known ligand. A higher Ki goes with weaker binding. On to `CN1CCN2c3c(cccc31)[C@@H]1CN(CCCC(=O)c3ccc(F)cc3)CC[C@@H]12` [Formula A, lumateperone], for which, in experiment [5] (30 nM), the “NMDA-induced currents compared to control” value is about 150%. Also, the “NMDA-induced currents compared to control” value in experiment [5] (Formula A 30 nM combined with SCH 23390 (1 μM)) is “about 90 % of control”. Also, the “AMPA-induced currents compared to control” value in experiment [1] (Formula A 30 nM, alone and with SCH 23390 (1 μM), rat mPFC) was “Substantially the same results”. Besides, the “activation of the mTORC1 signaling pathway in mPFC” value in experiment [2] (adult rats, 1 to 8 mg/kg i.p., 60 min, 90 min or 24 hours) is “rapidly activates the mTORC1 signaling pathway”. In addition, in experiment [2], the “mTOR phosphorylation (Serine 2448)” value was “Neither ketamine nor the Compound of Formula A results in a change”, the “increase in phosphorylation of AKT at thr308” value is reported as about 50% and the “p70s6K phosphorylation (Threonine 389)” value is “progressively increases”. Besides, the “symptoms of emotional experience compared to placebo” value in experiment [6] is “significant and unexpected improvement”. The same molecule gave a Ki in experiment [7] of over 10 µM.

For `CNCCC(Oc1ccc(C(F)(F)F)cc1)c1ccccc1` (stereo not shown) [fluoxetine], the “AMPA-induced current of the control” value in experiment [1] (100 nM fluoxetine) is listed as “about 90%”.

Values taken from patent US12023331B2 (priority 2018, dated 2024).
